Here are results for two compounds from patent US6515159B2, “S,S-ethylenediamine-N,N′-disuccinic acid iron alkali salt and a process for production thereof” (Mitsubishi Rayon Co., Ltd., priority 1997, dated 2003).

The nature of data set [1]: storage stability of 40% aqueous solution (dissolution state after storage). The data set is classed as physicochemical. The conditions noted are these: 40% aqueous solution stored at 50° C. for 1 week, then diluted to 1%. As to the method:
Each of the powders obtained in Examples 1, 10 and 13 and Comparative Examples 1 and 3 was dissolved to obtain a 40% aqueous solution. The solution was stored at 50° C. for 1 week and then diluted to 1% and the dissolution state of the resulting diluted solution was observed.

Take `O=C(O)C[C@H](NCCN[C@@H](CC(=O)O)C(=O)O)C(=O)O` [S,S-ethylenediamine-N,N′-disuccinic acid]: the “pH of aqueous solution” value is reported as ~2. In the case of `O=C([O-])C[C@H](NCCN[C@@H](CC(=O)[O-])C(=O)[O-])C(=O)[O-].[Fe+3].[Na+]` [Example 1, S,S-ethylenediamine-N,N′-disuccinic acid iron sodium salt], in data set [1], the “dissolution state of the resulting diluted solution” value is reported as “no insoluble material was found”.
